The values that follow come from patent US11905294B2, “Imidazo[1,5-a]pyrazine derivatives as PI3Kδ inhibitors” (BEIGENE, LTD., priority 2017, dated 2024).

Holding throughout (type): biochemical
For one experiment, the target named is PI3K (p110δ/p85α) (Homo sapiens, UniProt O00329). The experiment in a line: PI3Kδ assay (ADP-Glo Kinase Assay). The note with it: recombinant enzyme; IC50 (nM) or max inhibition (%) at 0.5 μM. How it is done: Compounds disclosed herein were tested for inhibition of PI3Kδ kinase activity using commercial ADP-Glo™ Kinase Assay (Promega Corporation) and following the manufacture's instruction. Briefly, recombinant PI3K (p110δ/p85α) enzyme, lipid kinase substrate and a serial dilution of compounds disclosed herein were incubated for 0.5 hr at room temperature. ATP was added to initiate the kinase reaction. After incubation for 1 hr at room temperature, ADP-Glo™ reagent was added to terminate the kinase reaction and deplete the remaining ATP. After incubation for 1 hr at room temperature, kinase detection reagent was added to simultaneously convert ADP to ATP and allow the newly synthesized ATP to be measured using a luciferase/luciferin reaction. After incubation for 0.5 hr at room temperature, the luminescence generated was measured on a PHERAstar FS plate reader (BMG LABTECH). The residual enzyme activity in presence of increasing concentrations of compounds was calculated based on the luminescence. The IC50 for each compound was derived from fitting the data to the four-parameter logistic equation by Graphpad Prism software.
Chain of PI3K (p110δ/p85α) (O00329 whole entry): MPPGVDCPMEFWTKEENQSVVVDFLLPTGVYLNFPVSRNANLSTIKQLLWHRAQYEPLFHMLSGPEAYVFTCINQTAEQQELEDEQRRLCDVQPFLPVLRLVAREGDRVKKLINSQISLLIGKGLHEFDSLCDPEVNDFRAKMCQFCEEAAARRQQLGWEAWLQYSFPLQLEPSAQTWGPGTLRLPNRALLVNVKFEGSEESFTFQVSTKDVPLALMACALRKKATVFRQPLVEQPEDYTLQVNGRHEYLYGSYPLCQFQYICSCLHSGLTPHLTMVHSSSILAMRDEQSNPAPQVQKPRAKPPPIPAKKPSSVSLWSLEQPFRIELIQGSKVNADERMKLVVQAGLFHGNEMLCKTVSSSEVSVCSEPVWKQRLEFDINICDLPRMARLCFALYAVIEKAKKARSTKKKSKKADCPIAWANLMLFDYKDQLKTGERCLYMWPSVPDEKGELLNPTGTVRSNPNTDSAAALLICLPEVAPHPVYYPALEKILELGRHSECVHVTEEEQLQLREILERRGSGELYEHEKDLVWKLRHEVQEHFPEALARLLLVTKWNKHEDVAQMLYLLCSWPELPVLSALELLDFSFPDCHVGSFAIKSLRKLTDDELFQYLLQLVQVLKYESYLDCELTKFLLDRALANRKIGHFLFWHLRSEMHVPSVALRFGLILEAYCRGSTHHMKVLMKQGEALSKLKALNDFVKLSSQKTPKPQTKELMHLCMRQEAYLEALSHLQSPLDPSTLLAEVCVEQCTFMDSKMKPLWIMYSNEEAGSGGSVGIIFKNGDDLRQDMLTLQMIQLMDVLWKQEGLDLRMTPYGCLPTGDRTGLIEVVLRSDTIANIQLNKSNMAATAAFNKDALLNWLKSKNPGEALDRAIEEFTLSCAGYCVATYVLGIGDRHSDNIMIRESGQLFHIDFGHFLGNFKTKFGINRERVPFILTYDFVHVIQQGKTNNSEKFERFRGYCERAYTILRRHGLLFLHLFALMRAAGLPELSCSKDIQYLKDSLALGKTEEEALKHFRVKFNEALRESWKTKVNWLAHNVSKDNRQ
Chain of PI3K (p110δ/p85α) (P27986 whole entry partner): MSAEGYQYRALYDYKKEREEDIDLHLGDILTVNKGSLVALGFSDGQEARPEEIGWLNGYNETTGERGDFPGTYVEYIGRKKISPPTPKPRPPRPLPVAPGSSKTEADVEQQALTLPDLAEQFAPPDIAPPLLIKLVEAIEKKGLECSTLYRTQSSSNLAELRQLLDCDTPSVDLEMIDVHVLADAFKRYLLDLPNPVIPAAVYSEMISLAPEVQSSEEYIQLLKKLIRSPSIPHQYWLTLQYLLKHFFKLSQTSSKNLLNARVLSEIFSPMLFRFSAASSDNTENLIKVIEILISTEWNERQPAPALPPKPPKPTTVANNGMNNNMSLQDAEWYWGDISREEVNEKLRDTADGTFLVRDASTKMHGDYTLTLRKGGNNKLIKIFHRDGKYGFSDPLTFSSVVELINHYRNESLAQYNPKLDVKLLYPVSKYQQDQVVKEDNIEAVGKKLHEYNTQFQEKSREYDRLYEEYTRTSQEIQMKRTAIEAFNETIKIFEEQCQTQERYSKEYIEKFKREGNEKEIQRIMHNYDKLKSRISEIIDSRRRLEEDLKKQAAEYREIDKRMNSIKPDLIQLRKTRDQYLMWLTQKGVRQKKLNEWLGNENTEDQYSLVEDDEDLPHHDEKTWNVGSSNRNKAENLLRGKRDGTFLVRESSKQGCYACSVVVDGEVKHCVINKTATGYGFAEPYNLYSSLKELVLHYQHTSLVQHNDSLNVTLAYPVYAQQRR
On the technique in general: In ADP-Glo the light output rises with the ADP produced.

Another experiment has as its target PI3K (p110γ) (Homo sapiens, UniProt P48736). Description: PI3Kγ assay (ADP-Glo Kinase Assay). The note with it: recombinant enzyme; IC50 (nM) or max inhibition (%) at 0.5 μM.
The target in the next experiment is PI3K (p110α/p85α) (Homo sapiens, UniProt P42336). The experiment in a line: PI3Kα assay (ADP-Glo Kinase Assay). Particulars: recombinant enzyme; IC50 (nM) or max inhibition (%) at 0.5 μM.
Chain of PI3K (p110α/p85α) (P42336 whole entry): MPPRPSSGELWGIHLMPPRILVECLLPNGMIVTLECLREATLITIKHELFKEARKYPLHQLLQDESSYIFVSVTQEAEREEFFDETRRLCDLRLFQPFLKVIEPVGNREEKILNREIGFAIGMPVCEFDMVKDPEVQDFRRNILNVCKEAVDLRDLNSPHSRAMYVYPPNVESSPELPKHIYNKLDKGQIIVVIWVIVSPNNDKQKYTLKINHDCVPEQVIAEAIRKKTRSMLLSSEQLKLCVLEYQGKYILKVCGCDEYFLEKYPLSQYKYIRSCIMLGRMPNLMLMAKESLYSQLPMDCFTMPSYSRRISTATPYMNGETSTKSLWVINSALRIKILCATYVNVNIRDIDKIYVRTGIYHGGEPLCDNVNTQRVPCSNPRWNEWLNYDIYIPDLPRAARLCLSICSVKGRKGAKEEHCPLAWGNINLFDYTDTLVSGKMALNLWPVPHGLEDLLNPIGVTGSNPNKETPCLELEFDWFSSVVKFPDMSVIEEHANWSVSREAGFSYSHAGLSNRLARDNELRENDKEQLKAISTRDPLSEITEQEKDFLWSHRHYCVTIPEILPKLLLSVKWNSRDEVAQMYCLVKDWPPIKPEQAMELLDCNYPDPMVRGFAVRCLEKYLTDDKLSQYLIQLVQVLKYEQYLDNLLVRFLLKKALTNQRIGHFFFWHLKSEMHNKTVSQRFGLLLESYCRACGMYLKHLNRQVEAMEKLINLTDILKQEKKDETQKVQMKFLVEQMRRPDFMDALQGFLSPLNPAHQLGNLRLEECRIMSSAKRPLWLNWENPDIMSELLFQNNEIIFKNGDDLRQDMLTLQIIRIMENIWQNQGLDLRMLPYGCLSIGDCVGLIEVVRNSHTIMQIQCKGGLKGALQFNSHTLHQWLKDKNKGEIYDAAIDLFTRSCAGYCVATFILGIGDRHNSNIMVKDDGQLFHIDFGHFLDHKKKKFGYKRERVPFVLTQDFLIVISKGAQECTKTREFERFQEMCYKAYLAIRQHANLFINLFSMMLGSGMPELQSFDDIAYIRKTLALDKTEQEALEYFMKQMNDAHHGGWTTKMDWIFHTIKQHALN
Chain of PI3K (p110α/p85α) (P27986 whole entry partner): as the sequence (P27986 whole entry partner) above
Another experiment addresses PI3K (p110β/p85α) (Homo sapiens, UniProt P42338). The experiment in a line: PI3Kβ assay (ADP-Glo Kinase Assay). The note with it: read-out: Enzyme activity IC50 PI3Kβ.

Chain of PI3K (p110β/p85α) (P42338 whole entry): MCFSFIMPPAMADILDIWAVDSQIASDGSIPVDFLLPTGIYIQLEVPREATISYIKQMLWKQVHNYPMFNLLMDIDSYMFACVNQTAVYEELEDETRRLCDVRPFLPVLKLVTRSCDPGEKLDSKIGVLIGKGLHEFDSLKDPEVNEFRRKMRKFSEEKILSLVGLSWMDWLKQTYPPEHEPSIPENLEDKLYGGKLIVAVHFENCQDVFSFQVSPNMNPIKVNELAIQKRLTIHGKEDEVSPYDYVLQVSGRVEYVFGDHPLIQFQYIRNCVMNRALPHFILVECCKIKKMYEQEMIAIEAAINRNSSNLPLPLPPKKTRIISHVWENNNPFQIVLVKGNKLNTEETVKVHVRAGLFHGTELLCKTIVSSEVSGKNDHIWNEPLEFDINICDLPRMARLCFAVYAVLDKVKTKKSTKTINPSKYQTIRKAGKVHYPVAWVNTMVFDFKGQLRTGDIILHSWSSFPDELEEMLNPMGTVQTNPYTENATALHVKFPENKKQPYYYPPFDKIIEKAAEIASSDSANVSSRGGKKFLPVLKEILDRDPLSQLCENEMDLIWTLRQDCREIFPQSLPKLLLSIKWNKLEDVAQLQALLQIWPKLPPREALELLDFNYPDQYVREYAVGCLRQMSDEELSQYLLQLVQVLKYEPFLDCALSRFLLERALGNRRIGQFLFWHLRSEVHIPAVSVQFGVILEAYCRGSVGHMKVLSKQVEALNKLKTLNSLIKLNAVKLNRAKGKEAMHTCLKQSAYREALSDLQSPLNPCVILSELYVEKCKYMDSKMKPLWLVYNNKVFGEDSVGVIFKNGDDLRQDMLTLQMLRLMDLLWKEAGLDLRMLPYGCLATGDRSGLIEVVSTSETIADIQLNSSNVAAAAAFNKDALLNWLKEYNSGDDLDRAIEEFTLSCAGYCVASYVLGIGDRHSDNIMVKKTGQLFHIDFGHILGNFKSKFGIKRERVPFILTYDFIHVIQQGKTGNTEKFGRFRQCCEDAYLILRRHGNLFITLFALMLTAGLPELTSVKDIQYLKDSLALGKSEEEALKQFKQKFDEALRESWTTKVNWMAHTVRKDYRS
Chain of PI3K (p110β/p85α) (P27986 whole entry partner): as the sequence (P27986 whole entry partner) above
Chain of PI3K (p110γ) (P48736 whole entry): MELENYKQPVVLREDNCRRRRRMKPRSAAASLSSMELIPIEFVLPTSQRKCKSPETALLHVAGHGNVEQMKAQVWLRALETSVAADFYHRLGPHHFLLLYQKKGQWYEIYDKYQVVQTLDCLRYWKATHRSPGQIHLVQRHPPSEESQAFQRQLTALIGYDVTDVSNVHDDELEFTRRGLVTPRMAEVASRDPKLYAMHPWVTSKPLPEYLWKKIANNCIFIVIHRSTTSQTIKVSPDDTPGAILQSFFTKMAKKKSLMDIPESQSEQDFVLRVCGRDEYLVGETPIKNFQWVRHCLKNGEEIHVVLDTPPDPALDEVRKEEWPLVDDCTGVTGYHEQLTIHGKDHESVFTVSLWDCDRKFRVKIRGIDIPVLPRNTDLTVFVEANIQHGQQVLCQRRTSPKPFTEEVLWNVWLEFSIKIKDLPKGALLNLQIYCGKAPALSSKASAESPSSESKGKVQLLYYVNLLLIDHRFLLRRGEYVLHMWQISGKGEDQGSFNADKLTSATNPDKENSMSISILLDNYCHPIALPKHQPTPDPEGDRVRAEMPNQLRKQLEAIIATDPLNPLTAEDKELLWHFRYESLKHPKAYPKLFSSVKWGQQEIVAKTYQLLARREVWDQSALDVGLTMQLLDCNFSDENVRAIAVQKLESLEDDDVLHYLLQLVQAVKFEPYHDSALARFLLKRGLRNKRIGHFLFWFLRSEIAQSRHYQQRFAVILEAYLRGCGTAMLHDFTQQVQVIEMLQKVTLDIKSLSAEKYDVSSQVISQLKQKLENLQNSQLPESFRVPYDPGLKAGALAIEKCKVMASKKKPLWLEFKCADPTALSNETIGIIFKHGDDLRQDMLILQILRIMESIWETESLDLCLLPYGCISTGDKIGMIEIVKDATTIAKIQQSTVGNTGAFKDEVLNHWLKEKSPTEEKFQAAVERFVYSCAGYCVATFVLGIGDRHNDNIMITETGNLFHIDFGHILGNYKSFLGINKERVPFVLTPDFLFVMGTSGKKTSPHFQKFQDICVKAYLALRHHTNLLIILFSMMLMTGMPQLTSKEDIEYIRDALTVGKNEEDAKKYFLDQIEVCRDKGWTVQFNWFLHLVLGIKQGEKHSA

By IC50 is commonly meant the concentration needed to halve the response being measured. Regarding `Cc1nc([C@@H](C)c2cc(Cl)c(F)c(C(=O)NCC3CCN(C)CC3)c2OC(C)C)n2ccnc(N)c12` [Compound 30, (S)-3-(1-(8-amino-1-methylimidazo[1,5-a]pyrazin-3-yl)ethyl)-5-chloro-6-fluoro-2-isopropoxy-N-((1-methylpiperidin-4-yl)methyl)benzamide], the IC50 was 0.97 nM on PI3K (p110δ/p85α), 7700 nM at PI3K (p110γ), 17000 nM at PI3K (p110α/p85α) and 14 µM on PI3K (p110β/p85α).

With `Cc1nc([C@@H](C)c2cc(Cl)c(F)c(C(=O)NC[C@H]3CCCO3)c2OC(C)C)n2ccnc(N)c12` [Compound 31, 3-((S)-1-(8-amino-1-methylimidazo[1,5-a]pyrazin-3-yl)ethyl)-5-chloro-6-fluoro-2-isopropoxy-N-(((R)-tetrahydrofuran-2-yl)methyl)benzamide], the IC50 at PI3K (p110δ/p85α) came to 3.1 nM; at PI3K (p110γ) it was 6200 nM; at PI3K (p110α/p85α), 25000 nM; on PI3K (p110β/p85α), 16 µM.

Take `Cc1nc([C@@H](C)c2cc(Cl)c(F)c(C(=O)NCc3ccccn3)c2OC(C)C)n2ccnc(N)c12` [Compound 33, (S)-3-(1-(8-amino-1-methylimidazo[1,5-a]pyrazin-3-yl)ethyl)-5-chloro-6-fluoro-2-isopropoxy-N-(pyridin-2-ylmethyl)benzamide]: the IC50 at PI3K (p110δ/p85α) stood at 1.3 nM; at PI3K (p110γ), 2200 nM; at PI3K (p110α/p85α), 9300 nM; at PI3K (p110β/p85α) it was 13 µM.

Regarding `Cc1nc([C@@H](C)c2cc(Cl)c(F)c(C(=O)NC[C@H]3CCOC3)c2OC(C)C)n2ccnc(N)c12` [Compound 34, 3-((S)-1-(8-amino-1-methylimidazo[1,5-a]pyrazin-3-yl)ethyl)-5-chloro-6-fluoro-2-isopropoxy-N-(((R)-tetrahydrofuran-3-yl)methyl)benzamide], the IC50 at PI3K (p110δ/p85α) amounted to 1.4 nM; on PI3K (p110γ) it was 3200 nM; on PI3K (p110α/p85α), 36000 nM; on PI3K (p110β/p85α), 11 µM.

Turning to `Cc1nc([C@@H](C)c2cc(Cl)c(F)c(C(=O)NC[C@@H]3CCOC3)c2OC(C)C)n2ccnc(N)c12` [Compound 35, 3-((S)-1-(8-amino-1-methylimidazo[1,5-a]pyrazin-3-yl)ethyl)-5-chloro-6-fluoro-2-isopropoxy-N-4(((S)-tetrahydrofuran-3-yl)methyl)benzamide], the IC50 was found to be 1.3 nM at PI3K (p110δ/p85α), 6000 nM on PI3K (p110γ), 46000 nM at PI3K (p110α/p85α) and 19 µM at PI3K (p110β/p85α).

As for `COc1ccc([C@@H](C)NC(=O)c2c(F)c(Cl)cc([C@H](C)c3nc(C)c4c(N)nccn34)c2OC(C)C)cc1` [Compound 36, 3-((S)-1-(8-amino-1-methylimidazo[1,5-a]pyrazin-3-yl)ethyl)-5-chloro-6-fluoro-2-isopropoxy-N-((R)-1-(4-methoxyphenyl)ethyl)benzamide], the IC50 at PI3K (p110δ/p85α) was 2 nM; at PI3K (p110γ), 460 nM; at PI3K (p110α/p85α), 9500 nM; at PI3K (p110β/p85α), 13 µM.

Consider `Cc1nc([C@@H](C)c2cc(Cl)c(F)c(C(=O)N[C@H]3CCC[C@@H]3O)c2OC(C)C)n2ccnc(N)c12` [Compound 37, 3-((S)-1-(8-amino-1-methylimidazo[1,5-a]pyrazin-3-yl)ethyl)-5-chloro-6-fluoro-2-isopropoxy-N-((1S,2S)-2-hydroxycyclopentyl)benzamide], for which the IC50 came out at 0.56 nM on PI3K (p110δ/p85α), 2500 nM at PI3K (p110γ), 11000 nM on PI3K (p110α/p85α) and 11 µM on PI3K (p110β/p85α).

On to `Cc1nc([C@@H](C)c2cc(Cl)c(F)c(C(=O)N[C@]3(C)C[C@H](O)C3)c2OC(C)C)n2ccnc(N)c12` [Compound 38, 3-((S)-1-(8-amino-1-methylimidazo[1,5-a]pyrazin-3-yl)ethyl)-5-chloro-6-fluoro-2-isopropoxy-N-((1S,3R)-3-hydroxy-1-methylcyclobutyl)benzamide], for which the IC50 on PI3K (p110δ/p85α) was 1.4 nM; on PI3K (p110γ) it was 3200 nM; at PI3K (p110α/p85α), 6100 nM; at PI3K (p110β/p85α) it was 25 µM.

In the case of `Cc1nc([C@@H](C)c2cc(Cl)c(F)c(C(=O)N[C@]3(C)C[C@@H](O)C3)c2OC(C)C)n2ccnc(N)c12` [Compound 39, 3-((S)-1-(8-amino-1-methylimidazo[1,5-a]pyrazin-3-yl)ethyl)-5-chloro-6-fluoro-N-((1r,3S)-3-hydroxy-1-methylcyclobutyl)-2-isopropoxybenzamide], the IC50 on PI3K (p110δ/p85α) was found to be 0.9 nM; at PI3K (p110γ), 28000 nM; at PI3K (p110α/p85α) it was 10000 nM; at PI3K (p110β/p85α), 2.3 µM.

Turning to `CCCNC(=O)c1c(F)c(Cl)cc([C@H](C)c2nc(C)c3c(N)nccn23)c1OC(C)C` [Compound 41, (S)-3-(1-(8-amino-1-methylimidazo[1,5-a]pyrazin-3-yl)ethyl)-5-chloro-6-fluoro-2-isopropoxy-N-propylbenzamide], the IC50 on PI3K (p110δ/p85α) stood at 0.99 nM; at PI3K (p110γ), 5500 nM; on PI3K (p110α/p85α), 20000 nM; at PI3K (p110β/p85α), 4.9 µM.

In the case of `Cc1nc([C@@H](C)c2cc(Cl)c(F)c(C(=O)NCC3CC3)c2OC(C)C)n2ccnc(N)c12` [Compound 42, (S)-3-(1-(8-amino-1-methylimidazo[1,5-a]pyrazin-3-yl)ethyl)-5-chloro-N-(cyclopropylmethyl)-6-fluoro-2-isopropoxybenzamide], the IC50 on PI3K (p110δ/p85α) is 1.2 nM; on PI3K (p110γ), 4800 nM; at PI3K (p110α/p85α), 36000 nM; at PI3K (p110β/p85α) it was 21 µM.

Consider `Cc1nc([C@@H](C)c2cc(Cl)c(F)c(C(=O)N3C[C@H](C)O[C@@H](C)C3)c2OC(C)C)n2ccnc(N)c12` [Compound 43, (3-((S)-1-(8-amino-1-methylimidazo[1,5-a]pyrazin-3-yl)ethyl)-5-chloro-6-fluoro-2-isopropoxyphenyl)((2S,6S)-2,6-dimethylmorpholino)methanone], for which the IC50 on PI3K (p110δ/p85α) was 2.2 nM; on PI3K (p110γ), 3400 nM; on PI3K (p110α/p85α) it was 21000 nM; at PI3K (p110β/p85α), above 50 µM.

For the compound `Cc1nc([C@@H](C)c2cc(Cl)c(F)c(C(=O)N[C@@H]3CCCOC3)c2OC(C)C)n2ccnc(N)c12` [Compound 44, 3-((S)-1-(8-amino-1-methylimidazo[1,5-a]pyrazin-3-yl)ethyl)-5-chloro-6-fluoro-2-isopropoxy-N-((R)-tetrahydro-2H-pyran-3-yl)benzamide], the IC50 on PI3K (p110δ/p85α) amounted to 0.74 nM; on PI3K (p110γ), 5000 nM; on PI3K (p110α/p85α), 20000 nM; on PI3K (p110β/p85α), 30 µM.

Take `Cc1nc([C@@H](C)c2cc(Cl)c(F)c(C(=O)N[C@H]3CCCOC3)c2OC(C)C)n2ccnc(N)c12` [Compound 45, 3-((S)-1-(8-amino-1-methylimidazol[1,5-a]pyrazin-3-yl)ethyl)-5-chloro-6-fluoro-2-isopropoxy-N-((S)-tetrahydro-2H-pyran-3-yl)benzamide]: the IC50 at PI3K (p110δ/p85α) amounted to 1.1 nM; at PI3K (p110γ), 2800 nM; at PI3K (p110α/p85α), 16000 nM; on PI3K (p110β/p85α) it was 32 µM.

Consider `Cc1nc([C@@H](C)c2cc(Cl)c(F)c(C(=O)N[C@H]3CCCC[C@@H]3O)c2OC(C)C)n2ccnc(N)c12` [Compound 46, 3((S)-1-(8-amino-1-methylimidazo[1,5-a]pyrazin-3-yl)ethyl)-5-chloro-6-fluoro-N-((1S,2S)-2-hydroxycyclohexyl)-2-isopropoxybenzamide], for which the IC50 on PI3K (p110δ/p85α) was 0.94 nM; at PI3K (p110γ), 2100 nM; on PI3K (p110α/p85α) it was 9700 nM; at PI3K (p110β/p85α), 39 µM.

As to `Cc1nc([C@@H](C)c2cc(Cl)c(F)c(C(=O)N[C@H]3CCCC[C@H]3O)c2OC(C)C)n2ccnc(N)c12` [Compound 47, 3-((S)-1-(8-amino-1-methylimidazo[1,5-a]pyrazin-3-yl)ethyl)-5-chloro-6-fluoro-N-((1S,2R)-2-hydroxycyclohexyl)-2-isopropoxybenzamide], the IC50 on PI3K (p110δ/p85α) is 2.5 nM; on PI3K (p110γ), 5800 nM; on PI3K (p110α/p85α), 27000 nM; at PI3K (p110β/p85α) it was 26 µM.

For the compound `Cc1nc([C@@H](C)c2cc(Cl)c(F)c(C(=O)NCC3CCCOC3)c2OC(C)C)n2ccnc(N)c12` (stereo partly drawn) [Compound 50, 3-((S)-1-(8-amino-1-methylimidazo[1,5-a]pyrazin-3-yl)ethyl)-5-chloro-6-fluoro-2-isopropoxy-N-((tetrahydro-2H-pyran-3-yl)methyl)benzamide], the IC50 on PI3K (p110δ/p85α) was 1.2 nM; on PI3K (p110γ) it was 6100 nM; at PI3K (p110α/p85α), 15000 nM; at PI3K (p110β/p85α) it was 20 µM.

As for `Cc1nc([C@@H](C)c2cc(Cl)c(F)c(C(=O)NCC3CCOCC3)c2OC(C)C)n2ccnc(N)c12` [Compound 51, (S)-3-(1-(8-amino-1-methylimidazo[1,5-a]pyrazin-3-yl)ethyl)-5-chloro-6-fluoro-2-isopropoxy-N-((tetrahydro-2H-pyran-4-yl)methyl)benzamide], the IC50 on PI3K (p110δ/p85α) was 0.97 nM; at PI3K (p110γ), 4500 nM; at PI3K (p110α/p85α) it was 27000 nM; on PI3K (p110β/p85α) it was 6.4 µM.

Turning to `Cc1nc([C@@H](C)c2cc(Cl)c(F)c(C(=O)N3CC4CCC(C3)O4)c2OC(C)C)n2ccnc(N)c12` [Compound 52, (3-((S)-1-(8-amino-1-methylimidazo[1,5-a]pyrazin-3-yl)ethyl)-5-chloro-6-fluoro-2-isopropoxyphenyl)(8-oxa-3-azabicyclo[3.2.1]octan-3-yl)methanone], the IC50 at PI3K (p110δ/p85α) stood at 1.4 nM; at PI3K (p110γ), 2500 nM; at PI3K (p110α/p85α), 10000 nM; at PI3K (p110β/p85α), 40 µM.
